# Source: patent US20170143605A1, “Compositions Comprising Osteopontin Derivatives for the Inhibition of Hair Growth” (FOLLICUM AB, priority 2014, published 2017)
# Assays:
# [1] = tested on: human male scalp skin grafted onto SCID mice; assay: Hair growth of human male scalp skin grafted onto SCID mice; format: in vivo; settings: human scalp grafts on SCID/beige mice; FOL-005 300 nM per graft intradermally twice a week; Minoxidil 5% topically twice a day; three months
# Description: The effect of FOL-005 on hair growth of human male scalp skin grafted onto SCID mice was studied.
# The aim of the study was to investigate the effect of FOL-005 on hair growth of human male scalp skin with tendency to androgenetic alopecia. In order to address this issue, fort-two female SCID/beige mice, six weeks of age, were involved in the study. Punch grafts, 3 mm^2, obtained from scalp skin of human volunteers with tendency to develop common alopecia, were transplanted onto SCID/beige mice (three grafts per mouse).
# One week following transplantation, the mice were randomly divided into four treated groups as follows: • 1. Vehicle (10 mice) was injected intradermally twice a week and served as a negative control. • 2. Minoxidil (5%) (11 mice) was applied topically twice a day and served as appositive control. • 3. FOL-005 (300 nM per graft) (11 mice) was injected intradermally twice a week. • 4. Minoxidil 5%+FOL-005/Minoxidil (5%) (11 mice) was applied topically twice a day. FOL-005 (300 nM per graft) was injected intradermally twice a week. For the first 4 weeks the animals were treated with minoxidil only (in order to initiate hair growth) and then for the remaining period (2 months) FOL-005 treatment was added as injections, while minoxidil treatment was maintained as a topical application.
# The number of hairs/graft was counted twice a week by two independent observers. […]
# [2] = tested on: isolated human hair follicles; assay: Organ culture of isolated human hair follicles: hair cycle staging (anagen to catagen); format: cell-based
# Description: Anagen VI hair follicles (see Kloepper et al., 2010, the disclosures of which are incorporated herein by reference) were micro dissected from normal human scalp skin obtained with informed patient consent from three healthy adult females undergoing routine face-lift cosmetic surgery.
# Isolated hair follicles were organ-cultured for 6-10 days in insulin- and hydrocortisone-supplemented William's E medium according to Philpott et al. (see Philpott et al., 1990; Bodó et al., 2009; Gáspár et al., 2010, the disclosures of which are incorporated herein by reference).
# Treatment with the exemplary polypeptide FOL-005 was initiated immediately upon culturing the hair follicles, and lasted 7 to 10 days.
# At the end of organ-culture, hair follicles were embedded and processed for longitudinal cryosections (Bodó et al., 2009; Gáspár et al., 2010).
# [3] = tested on: human HFs in organ-cultured full-thickness human scalp skin fragments; assay: Masson Fontana HF pigmentation in organ-cultured human scalp skin fragments; format: cell-based; settings: at the doses tested; pooled data from 6 patients
# Description: FIG. 15). Masson Fontana staining. […] Anagen & Catagen Hair Follices analysed. Pooled data from 6 patients. Mean+/−SEM, n=41-51 HFs evaluated, unpaired Student's t-test, ns
# FIG. 17). Masson Fontana staining. […] Anagen HFs analysed. Pooled data from 6 patients. Mean+/−SEM, n=13-22 HFs evaluated, unpaired Student's t-test, ns
# (§1) The following experiments were performed using human HFs in organ-cultured full-thickness human scalp skin fragments (4 mm, 6 female patients, 42-65 yrs).
# [4] = tested on: human HFs in organ-cultured full-thickness human scalp skin fragments; assay: Ki67/TUNEL proliferation/apoptosis in organ-cultured human scalp skin fragments; format: cell-based; settings: 15 nM; anagen and catagen HFs analysed
# Description: FIG. 20). Ki67/TUNEL. […] Anagen & Catagen HFs analysed. Pooled data from 6 patients. Mean+/−SEM, n=48-59 HFs evaluated, Mann-Whitney test, *p<0.02. To reduce data distortion by outliers, Grubb's test was performed and the outlier value was eliminated from analysis.
# as §1
# Mean+/−SEM, n=48-59 HFs evaluated, Mann-Whitney test, *p<0.02. To reduce data distortion by outliers, Grubb's test was performed and the outlier value was eliminated from analysis.
# [5] = tested on: human HFs in organ-cultured full-thickness human scalp skin fragments; assay: CD31 staining (indirect immunofluorescence); format: cell-based
# Description: FIG. 24). CD31 staining HS14-061 (indirect immunoflourescence, mouse anti-human CD31 Ab from DAKO).
# as §1
# [6] = tested on: intact human scalp skin; assay: Full-thickness human scalp skin organ culture: hair cycle staging; format: cell-based
# Description: Full-thickness human scalp skin organ culture was performed for six days under serum-free conditions as described in (Lu et al., 2007, the disclosures of which are incorporated herein by reference).
# In brief, scalp skin of female patients was obtained from routine face-lift surgery after informed consent. Human scalp skin was washed in William's E medium (Biochrom, Cambridge, UK) supplemented with 100 IU/ml penicillin G (Sigma, St Louis, Mo., USA), 10 μg/ml streptomycin (Sigma), 0.25 μg/ml amphotericin B (Gibco, Karlsruhe, Germany) for 5 min. The out-growing hair shafts were shaved off to the level of the epidermis; 2 mm biopsies of intact scalp skin were then punched out (parallel to the direction of hair growth, i.e. at an oblique angle), using an Acu-puncher (STIEFEL, Offenbach am Main, Germany).
# The punches of human scalp tissue were carefully placed into William's E medium [supplemented with 100 IU/ml penicillin/10 μg/ml streptomycin, 10 μg/ml of insulin (Sigma), 10 ng/ml of hydrocortisone (Sigma) and 2 mmol/I of I-glutamine (Invitrogen, Paisley, UK)]. The skin fragments were left to float in the medium, with the epidermis up at air/liquid interface and the dermis/subcutis down. The cultures were maintained at 37° C. in a gassed incubator with 95% air and 5% CO2. The culture medium was changed every other day.
# Immediately after commencement of culturing, the skin fragments were exposed to the exemplary polypeptide FOL-005 (at a dose of 15 nM to 3 μM), which lasted for the duration of culturing.
# (§2) At different time points, skin specimens were embedded in O.C.T.™ Tissue-TEK (Sakura, Zoeterwoude, the Netherlands), frozen in liquid nitrogen, and 6 μm cryosections were cut. The sections were then post-fixed in acetone, air-dried and processed for haematoxylin and eosin (H&E; Sigma), Giemsa or Masson-Fontana histochemistry. Individual hair follicles were analysed with respect to their stage of cycling as described (Whiting et al. 1999), while hair follicle melanization was assessed by standard silver nitrate histochemistry (Masson-Fontana stain). Quantification of well-defined reference areas within the proximal hair matrix was performed using the Image J software (NIH).
# [7] = tested on: human HFs in organ-cultured full-thickness human scalp skin fragments; assay: Toluidine blue staining for perifollicular mast cells; format: cell-based
# Description: FIG. 22). Toluidine blue staining for detecting Mast cells.
# as §1
# [8] = tested on: human HFs in organ-cultured full-thickness human scalp skin fragments; assay: K15 staining (indirect immunofluorescence); format: cell-based
# Description: FIG. 25). […] Preservation of HF stem cell pool and thus regenerative potential by FOL-005.
# as §1
# K15 staining was performed using HS14-087 (indirect immunoflourescence, mouse anti-human CK15 Ab from Chemikon).
# [9] = tested on: isolated human hair follicles; assay: Masson Fontana melanin pigmentation analysis in cultured isolated human hair follicles; format: cell-based; settings: 60 nM
# Description: FIG. 3). Effect of FOL-005 on melatonin content in cultured isolated human hair follicles. The analysis was performed using Masson Fontana histochemistry and morphometric evaluation of each tissue section. Results presented as mean+/−SEM, n=26-47 hair follicles evaluated in each group. One-way ANOVA and Bonferroni's post-hoc test, *p<0.05
# Masson Fontana staining: Cryosections were air dried and fixed in ethanol-acetic acid. The sections were washed in tris-buffered saline (TBS) and distilled water several times. Cryosections were treated with ammoniacal silver solution (Fluka, Seelze, Germany) for 40 min at 56° C. in the dark. After washing in distilled water, the sections were treated with 5% aqueous sodium thiosulphate (Merck, Darmstadt, Germany) for 1 min. Next, the sections were washed in running tap water for 3 min and were counter-stained in 0.5% aqueous neutral red (Sigma). After washing in distilled water, sections were dehydrated and mounted in Eukitt (O. Kindler, Freiburg, Germany).
# [10] = tested on: human HFs in organ-cultured full-thickness human scalp skin fragments; assay: Hair follicle morphology (PAS staining); format: cell-based
# Description: as §1
# [11] = tested on: intact human scalp skin; assay: Ki67/TUNEL double immunofluorescence in intact human scalp skin; format: cell-based; settings: 60 nM; 3 days after treatment
# Description: FIG. 7). Effect of FOL-005 on proliferation of Ki67 positive cells in intact human scalp skin. The concentration of FOL-005 was 60 nM, Mean+/−SEM, n=6-17 photos/punch was evaluated. “D3”=3 days after treatment.
# To evaluate apoptotic and proliferating cells, double immunofluorescence was applied. Terminal dUTP nicked label-ling (ApopTag®Fluorescein in situ Apoptosis Detection Kit; Chemicon, Tenecula, Calif., USA) was used as a marker for apoptosis, and Ki67 immunoreactivity (DakoCytomation, Glostrup, Denmark) as indicator of cell proliferation, as previously described (Foitzik et. al., 2006).
# Masson Fontana staining and immunohistochemistry was performed as described above.
# The proliferation of Ki67 positive cells and apoptosis therein was determined as described in Whiting et al., 1999, J Investig Dermatol Symp Proc 4:282-284 (the relevant disclosures of which are incorporated by reference).
# Cells were exposed to exemplary polypeptide FOL-005 at a dose of 60 nM.
# [12] = tested on: human HFs in organ-cultured full-thickness human scalp skin fragments; assay: MHCII staining (indirect immunofluorescence); format: cell-based
# Description: FIG. 23). MHCII staining HS 14-061 (indirect immunofluorescence. Mouse anti human Ab HLA-DP-DQ-DR from DAKO). […] These MHCII+ cells are most likely macrophages.
# as §1
# [13] = tested on: human HFs in organ-cultured full-thickness human scalp skin fragments; assay: Hair cycle staging in organ-cultured human scalp skin fragments; format: cell-based; settings: pooled data from six patients
# Description: FIG. 13). Hair Cycle staging. Treatment of HFs with FOL-005 consistently induces anagen HFs within human scalp skin to enter catagen prematurely in all six patients tested (in each vertical bar, the top region corresponds to mid-catagen, the middle region to early catagen and the bottom region to anagen). Pooled data from 6 patients.
# as §1
# [14] = tested on: intact human scalp skin; assay: Masson-Fontana melanin pigmentation in intact human scalp skin; format: cell-based; settings: injection or addition to the culture medium
# Description: FIG. 8). Effect of FOL-005 on melatonin content in intact human scalp skin. The analysis was performed using Masson Fontana histochemistry and morphometric evaluation of each tissue section. Results presented as mean+/−SEM. One-way ANOVA and Bonferroni's post-hoc test, **p<0.01, *p<0.05. “D3”=3 days after treatment.
# as §2
# Pigmentation changes in isolated follicles treated with exemplary polypeptide FOL-005 were assessed by Masson-Fontana histochemistry (see Whiting et al., 1999, J Investig Dermatol Symp Proc 4:282-284, the relevant disclosures of which are incorporated by reference).
# [15] = tested on: human HFs in organ-cultured full-thickness human scalp skin fragments; assay: Emigration of dermal papilla cells in organ-cultured human scalp skin fragments; format: cell-based; settings: anagen HFs only; pooled data from six patients
# Description: FIG. 11). Effect of FOL-005 on emigration of Dermal Papilla (DP) cells. Only Anagen Hair follicles (HFs) analysed. Results based on pooled data from 6 patients. No significant change in the number of emigrating DP cells in HFs treated with FOL-005. Mean+/−SEM, n=18-22 HFs evaluated, Mann-Whitney test, ns
# as §1
compound,measurement,setting,value
"Nc1cc(N2CCCCC2)nc(N)[n+]1[O-] [Minoxidil, reference compound]",number of hairs/graft,[1],8.1±0.1 hairs/graft
"VDTYDGDISVVYGLR (FOL-005, Peptide with similarity to sub-region of osteopontin) [exemplary polypeptide of the invention, osteopontin-derived 15-mer]",hair follicle regression (analysis of cryosections),[2],promotes hair follicle regression
same,transition from anagen to catagen phase,"[2]; 15 nM, 60 nM and 300 nM, treatment 7 to 10 days",induced a dose-dependent transition from anagen to catagen phase
same,HF pigmentation,[3],No significant changes
same,number of apoptotic cells in HFs,[4],significant increase
same,number of proliferative cells in HFs,[4],No significant changes
same,number of hairs/graft,[1],2.1±0.4 hairs/graft
same,number of CD31+ cells (endothelial cells),[5],No marked differences
same,hair follicles in early catagen,[6]; addition to the culture medium,Almost all hair follicles are observed in early catagen
same,hair follicle regression (analysis of cryosections),[6]; human skin pieces (Example B),promotes hair follicle regression
same,catagen induction,[6]; injection into the scalp skin tissue,Catagen was also induced
same,transition from anagen to catagen phase,"[6]; intact human scalp skin, 15 nM to 3 μM, six days culture",induced a rapid transition from anagen to catagen phase
same,number of histochemically-detectable perifollicular mast cells,[7],No marked difference
same,number of K15+ cells,[8],No marked differences
same,human HF epithelial stem cells,[8]; K15 staining,not affected negatively
same,melanin pigmentation,[9],significant reduction in pigmentation
same,morphology of the BM (basal membrane) in HFs,[10],No observable difference
same,apoptosis (proportion of TUNEL positive cells),[11],increased level of apoptosis
same,proliferation (proportion of Ki67 positive cells),[11],strong tendency towards reduced proliferation
same,number of immunohistologically-detectable perifollicular MHC class II+ cells,[12],No marked difference
same,HF cycling (anagen to catagen),[13],consistently induced anagen HFs within human scalp skin to enter catagen prematurely in all six patients tested
same,melanin pigmentation,[14],significant reduction in pigmentation
same,number of emigrating dermal papilla (DP) cells in HFs,[15],No significant effect
